In patent EP0940081A1, “Combinations of active agents and disinfectants, preservatives and antiseptics containing same” (Bode Chemie GmbH & Co., priority 1998, dated 1999):
Read-outs that look alike come from different tables or passages of the source.

Columns and labels:
Staphylococcus aureus [1] = experiment: Agar diffusion test, inhibition zone; format: cell-based; conditions: 24 h
Protocol: Methodik: Decylthiouroniumbromid wurde in abgestuften Konzentrationen im Agar inkorporiert. In Stanzlöcher wurde eine Natriumperboratlösung ohne und mit Aktivierung pipettiert. Die Platten wurden mit Staphylococcus aureus beimpft und 24 h bebrütet. Der entstehende Hemmhof wurde gemessen.

[2] = Cytotoxicity, cell count of monolayer culture after 24 h exposure; format: cell-based, human; conditions: human, fl amnion cells, 24 h, read-out: Median der Zellzahl
Protocol: (§1) Methodik: Die Zytotoxizität wird an der FL-Linie (menschliche Amnionzellen) geprüft. 2-3 Tage nach der Zelleinsaat werden die Zellen, nachdem sie als einschichtige Zellkultur (Monolayer) vorliegen, nach Medienwechsel für 24 h mit der Prüfsubstanz exponiert, danach abgelöst und die Zellzahl in % zur Kontrolle mit dem Zellzähler Universal 87001 (mölab, Hilden) ermittelt.

Enterococcus faecium = experiment: Agar incorporation test, bacteriostatic activity; format: cell-based; parameters: key: ⊕⊕: ungehemmtes Wachstum; ⊕: vermindertes Wachstum; -: absolute Hemmung (a. H.); conditions: 24 h bei 36 °C
Excerpt: (§2) Methodik: Percarbamid und Dodecylthiouroniumchlorid werden unter städigem Durchmischen bis zur vollständigen Homogenisierung erwärmt. Die Prüfung der Kombination im Vergleich zu den entsprechenden Monowirkstoffen auf bakteriostatische Wirksamkeit erfolgte im Agarinkorporationstest. Die zu untersuchenden Substanzen wurden in Wasser standardisierter Härte gelöst. Die Konzentration der Testsubstanzen im Nähragar wurde in einer geometrischen Reihe auf der Basis 2 abgestuft. Zum Beimpfen der Testplatten wurden die im Beispiel 1 genannten Testkeime 6 h in Caseinpepton-Sojamehlpepton-Lösung bebrütet und so in eine logarithmische Wachstumsphase gebracht. Danach wurden die Agarplatten sternförmig sektorenweise mit jeweils einer ? abgestrichenen Öse beimpft. Der Sektor von Proteus mirabilis wurde durch Gräben abgetrennt, um das Schwärmen zu verhindern. Nach 24 h Bebrütung bei 36 °C erfolgte die Bewertung des Bakterienwachstums unter Vergleich mit substanzfreien Kontrollplatten nach folgendem Schema: ++++ ungehemmtes Wachstum +++ geringe Wachstumshemmung (maximal ¾ des Wachstums der Kontrollen) ++ mäßige Wachstumshemmung (maximal ½ des Wachstums der Kontrollen) + starke Wachstumshemmung (maximal ¼ des Wachstums der Kontrollen) Das sog. ? verminderte Wachstum" (v. W.) umfaßt die Bereiche + bis +++ - absolute Hemmung (a. H.)
(§3) In den Tabellen 5, 6 und 7 bedeuten ⊕⊕ ungehemmtes Wachstum und ⊕ vermindertes Wachstum.

Escherichia coli = experiment: Agar incorporation test, bacteriostatic activity; format: cell-based; parameters: key: ⊕⊕: ungehemmtes Wachstum; ⊕: vermindertes Wachstum; -: absolute Hemmung (a. H.); conditions: 24 h bei 36 °C
Excerpt: as §2, §3

Proteus mirabilis = experiment: Agar incorporation test, bacteriostatic activity; format: cell-based; parameters: key: ⊕⊕: ungehemmtes Wachstum; ⊕: vermindertes Wachstum; -: absolute Hemmung (a. H.); conditions: 24 h bei 36 °C
Excerpt: as §2, §3

Staphylococcus aureus [3] = experiment: Agar incorporation test, bacteriostatic activity; format: cell-based; parameters: key: ⊕⊕: ungehemmtes Wachstum; ⊕: vermindertes Wachstum; -: absolute Hemmung (a. H.); conditions: 24 h bei 36 °C
Excerpt: as §2, §3

Pseudomonas aeruginosa = experiment: Agar incorporation test, bacteriostatic activity; format: cell-based; parameters: key to Bakteriostatische Wirksamkeit (Wachstum): ⊕⊕: ungehemmtes Wachstum; ⊕: vermindertes Wachstum; -: absolute Hemmung (a. H.); conditions: for Bakteriostatische Wirksamkeit (Wachstum): 24 h bei 36 °C
Excerpt: as §2, §3

[4] = tested on: FL-Linie (menschliche Amnionzellen); experiment: Cytotoxicity, cell count of monolayer culture after 24 h exposure; format: cell-based, human; conditions: Prüfkonzentration 0,005 %; 24 h; 1440 min
Protocol: as §1

[5] = Konzentration in Wasser 0,0015 %
[6] = Konzentration in Wasser 0,003 %
[7] = Konzentration in Wasser 0,006 %
[8] = Konzentration in Wasser 0,012 %
[9] = Konzentration in Wasser 0,025 %

SMILES: CCCCCCCCCCSC(=N)N [Decylthiouroniumbromid]
- Hemmhofgröße (Staphylococcus aureus [1]; combination: 0,0009% Decylthiouroniumbromid im Agar with Perborat 0,5% im Stanzloch, Aktivator ja): 19 mm
- Hemmhofgröße (Staphylococcus aureus [1]; combination: 0,0019% Decylthiouroniumbromid im Agar with Perborat 0,5% im Stanzloch, Aktivator ja): 24 mm
- viability at 24 h ([2]; Prüfkonzentration 0,0001 %): 96.8%
- viability at 24 h ([2]; Prüfkonzentration 0,005 %): 33.5%

SMILES: O=BO[O-].[Na+] [Perborat, Natriumperborat]
- Hemmhofgröße (Staphylococcus aureus [1]; Perboratkonzentration im Stanzloch 0,5%, Aktivator ja, no Decylthiouroniumbromid im Agar): 13 mm
- Hemmhofgröße (Staphylococcus aureus [1]; Perboratkonzentration im Stanzloch 0,5%, Aktivator nein, no Decylthiouroniumbromid im Agar): 0 mm
- Hemmhofgröße (Staphylococcus aureus [1]; Perboratkonzentration im Stanzloch 0,25%, Aktivator ja, no Decylthiouroniumbromid im Agar): 0 mm
- Hemmhofgröße (Staphylococcus aureus [1]; Perboratkonzentration im Stanzloch 0,25%, Aktivator nein, no Decylthiouroniumbromid im Agar): 0 mm
- Hemmhofgröße (Staphylococcus aureus [1]; Perboratkonzentration im Stanzloch 1%, Aktivator ja, no Decylthiouroniumbromid im Agar): 15 mm
- Hemmhofgröße (Staphylococcus aureus [1]; Perboratkonzentration im Stanzloch 1%, Aktivator nein, no Decylthiouroniumbromid im Agar): 11 mm
- Hemmhofgröße (Staphylococcus aureus [1]; Perboratkonzentration im Stanzloch 2%, Aktivator ja, no Decylthiouroniumbromid im Agar): 19 mm
- Hemmhofgröße (Staphylococcus aureus [1]; Perboratkonzentration im Stanzloch 2%, Aktivator nein, no Decylthiouroniumbromid im Agar): 13 mm

SMILES: CCCCCCCCCCCCSC(=N)N [Dodecylthiouroniumchlorid]
- Bakteriostatische Wirksamkeit (Wachstum) (Enterococcus faecium; Konzentration in Wasser 0,1 %): -
- Bakteriostatische Wirksamkeit (Wachstum) (Enterococcus faecium; Konzentration in Wasser 0,2 %): -
- Bakteriostatische Wirksamkeit (Wachstum) (Enterococcus faecium; Konzentration in Wasser 0,4 %): -
- Bakteriostatische Wirksamkeit (Wachstum) (Enterococcus faecium; Konzentration in Wasser 0,05 %): -
- Bakteriostatische Wirksamkeit (Wachstum) (Enterococcus faecium; Konzentration in Wasser 0,8 %): -
- Bakteriostatische Wirksamkeit (Wachstum) (Enterococcus faecium; [5]): ⊕⊕
- Bakteriostatische Wirksamkeit (Wachstum) (Enterococcus faecium; [6]): ⊕⊕
- Bakteriostatische Wirksamkeit (Wachstum) (Enterococcus faecium; [7]): ⊕
- Bakteriostatische Wirksamkeit (Wachstum) (Enterococcus faecium; [8]): -
- Bakteriostatische Wirksamkeit (Wachstum) (Enterococcus faecium; [9]): -
- Bakteriostatische Wirksamkeit (Wachstum) (Escherichia coli; Konzentration in Wasser 0,1 %): -
- Bakteriostatische Wirksamkeit (Wachstum) (Escherichia coli; Konzentration in Wasser 0,2 %): -
- Bakteriostatische Wirksamkeit (Wachstum) (Escherichia coli; Konzentration in Wasser 0,4 %): -
- Bakteriostatische Wirksamkeit (Wachstum) (Escherichia coli; Konzentration in Wasser 0,05 %): -
- Bakteriostatische Wirksamkeit (Wachstum) (Escherichia coli; Konzentration in Wasser 0,8 %): -
- Bakteriostatische Wirksamkeit (Wachstum) (Escherichia coli; [5]): ⊕⊕
- Bakteriostatische Wirksamkeit (Wachstum) (Escherichia coli; [6]): ⊕⊕
- Bakteriostatische Wirksamkeit (Wachstum) (Escherichia coli; [7]): ⊕⊕
- Bakteriostatische Wirksamkeit (Wachstum) (Escherichia coli; [8]): ⊕
- Bakteriostatische Wirksamkeit (Wachstum) (Escherichia coli; [9]): -
- Bakteriostatische Wirksamkeit (Wachstum) (Proteus mirabilis; Konzentration in Wasser 0,1 %): -
- Bakteriostatische Wirksamkeit (Wachstum) (Proteus mirabilis; Konzentration in Wasser 0,2 %): -
- Bakteriostatische Wirksamkeit (Wachstum) (Proteus mirabilis; Konzentration in Wasser 0,4 %): -
- Bakteriostatische Wirksamkeit (Wachstum) (Proteus mirabilis; Konzentration in Wasser 0,05 %): -
- Bakteriostatische Wirksamkeit (Wachstum) (Proteus mirabilis; Konzentration in Wasser 0,8 %): -
- Bakteriostatische Wirksamkeit (Wachstum) (Proteus mirabilis; [5]): ⊕⊕
- Bakteriostatische Wirksamkeit (Wachstum) (Proteus mirabilis; [6]): ⊕⊕
- Bakteriostatische Wirksamkeit (Wachstum) (Proteus mirabilis; [7]): ⊕⊕
- Bakteriostatische Wirksamkeit (Wachstum) (Proteus mirabilis; [8]): ⊕
- Bakteriostatische Wirksamkeit (Wachstum) (Proteus mirabilis; [9]): ⊕
- Bakteriostatische Wirksamkeit (Wachstum) (Staphylococcus aureus [3]; Konzentration in Wasser 0,1 %): -
- Bakteriostatische Wirksamkeit (Wachstum) (Staphylococcus aureus [3]; Konzentration in Wasser 0,2 %): -
- Bakteriostatische Wirksamkeit (Wachstum) (Staphylococcus aureus [3]; Konzentration in Wasser 0,4 %): -
- Bakteriostatische Wirksamkeit (Wachstum) (Staphylococcus aureus [3]; Konzentration in Wasser 0,05 %): -
- Bakteriostatische Wirksamkeit (Wachstum) (Staphylococcus aureus [3]; Konzentration in Wasser 0,8 %): -
- Bakteriostatische Wirksamkeit (Wachstum) (Staphylococcus aureus [3]; [5]): ⊕⊕
- Bakteriostatische Wirksamkeit (Wachstum) (Staphylococcus aureus [3]; [6]): ⊕⊕
- Bakteriostatische Wirksamkeit (Wachstum) (Staphylococcus aureus [3]; [7]): -
- Bakteriostatische Wirksamkeit (Wachstum) (Staphylococcus aureus [3]; [8]): -
- Bakteriostatische Wirksamkeit (Wachstum) (Staphylococcus aureus [3]; [9]): -
- Bakteriostatische Wirksamkeit (Wachstum) (Pseudomonas aeruginosa; Konzentration in Wasser 0,1 %): -
- Bakteriostatische Wirksamkeit (Wachstum) (Pseudomonas aeruginosa; Konzentration in Wasser 0,2 %): -
- Bakteriostatische Wirksamkeit (Wachstum) (Pseudomonas aeruginosa; Konzentration in Wasser 0,4 %): -
- Bakteriostatische Wirksamkeit (Wachstum) (Pseudomonas aeruginosa; Konzentration in Wasser 0,05 %): ⊕
- Bakteriostatische Wirksamkeit (Wachstum) (Pseudomonas aeruginosa; Konzentration in Wasser 0,8 %): -
- Bakteriostatische Wirksamkeit (Wachstum) (Pseudomonas aeruginosa; [5]): ⊕⊕
- Bakteriostatische Wirksamkeit (Wachstum) (Pseudomonas aeruginosa; [6]): ⊕⊕
- Bakteriostatische Wirksamkeit (Wachstum) (Pseudomonas aeruginosa; [7]): ⊕⊕
- Bakteriostatische Wirksamkeit (Wachstum) (Pseudomonas aeruginosa; [8]): ⊕⊕
- Bakteriostatische Wirksamkeit (Wachstum) (Pseudomonas aeruginosa; [9]): ⊕⊕
- Konzentration, durch die Pseudomonas aeruginosa gehemmt wird (minimale Hemmkonzentration) (Pseudomonas aeruginosa; single substance, resistentester Testkeim): 0,1%
- viability at 24 h ([2]; Prüfkonzentration 0,0001 %): 101%
- viability at 24 h ([2]; Prüfkonzentration 0,005 %): 70%
- Median der Zellzahl [4]: 69,9 % der Kontrolle
